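Test compounds were applied to cells in 96-well plates for 48 hours at 5 doses. TGI: total growth inhibition.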
Assays:
Assay in all cases: inhibition of tumour cell growth, NCI panel, 48 h
[1] = test system: A498 renal
[2] = test system: A549 NSCLC
[3] = test system: ACHN renal
[4] = test system: CAKI-1 renal
[5] = test system: CCRF-CEM leukemia
[6] = test system: EKVX NSCLC
[7] = test system: HCC-2998 colon
[8] = test system: HCT-116 colon
[9] = test system: HL-60(TB) leukemia
[10] = test system: HOP-62 NSCLC
[11] = test system: HOP-92 NSCLC
[12] = test system: HT29 colon
[13] = test system: IGROV1 ovarian
[14] = test system: K-562 leukemia
[15] = test system: KM12 colon
[16] = test system: KM20L2 colon
[17] = test system: LXFL 529 NSCLC
[18] = test system: M14 melanoma
[19] = test system: M19-MEL melanoma
[20] = test system: MALME-3M melanoma
[21] = test system: MOLT-4 leukemia
[22] = test system: NCI-H23 lung
[23] = test system: NCI-H460 lung
[24] = test system: OVCAR-4 ovarian
[25] = test system: OVCAR-5 ovarian
[26] = test system: OVCAR-8 ovarian
[27] = test system: RPMI-8226 leukemia
[28] = test system: RXF 393 renal
[29] = test system: SF-268 CNS
[30] = test system: SF-295 CNS
[31] = test system: SF-539 CNS
[32] = test system: SK-MEL-2 melanoma
[33] = test system: SK-MEL-28 melanoma
[34] = test system: SK-MEL-5 melanoma
[35] = test system: SK-OV-3 ovarian
[36] = test system: SNB-19 CNS
[37] = test system: SNB-75 CNS
[38] = test system: SNB-78 CNS
[39] = test system: SR leukemia
[40] = test system: TK-10 renal
[41] = test system: UACC-62 melanoma
[42] = test system: UO-31 renal
[43] = test system: XF 498 CNS
[44] = test system: 786-0 renal
[45] = test system: COLO 205 colon
[46] = test system: DLD-1 colon
[47] = test system: DMS 114 small cell lung
[48] = test system: DU-145 prostate
[49] = test system: HCT-15 colon
[50] = test system: HOP-18 NSCLC
[51] = test system: HS 578T breast
[52] = test system: LOX IMVI melanoma
[53] = test system: MCF7 breast
[54] = test system: MDA-MB-231 breast
[55] = test system: MDA-MB-435
[56] = test system: NCI-H226 lung
[57] = test system: NCI-H522 lung
[58] = test system: NCI/ADR-RES ovarian
[59] = test system: OVCAR-3 ovarian
[60] = test system: PC-3 prostate
[61] = test system: SN12C renal
[62] = test system: SW-620 colon
[63] = test system: U251 CNS
[64] = test system: UACC-257 melanoma

Molecule CCN1/C(=C/C(C)=C/c2sc3ccccc3[n+]2CC)Sc2ccccc21 has a TGI [1] of 1.82 µM, a TGI [2] of 1.42 µM and a TGI [3] of 3.13 µM. The TGI [4] was 0.693 µM, the TGI [5] was 0.166 µM and the TGI [6] was 1.4 µM. It also gave a TGI [7] of 0.876 µM, a TGI [8] of 1.42 µM and a TGI [9] of 4.78 µM. The TGI [10] was 0.391 µM, the TGI [11] was 0.338 µM and the TGI [12] was 1.72 µM. It also gave a TGI [13] of 2 µM, a TGI [14] of 1.24 µM and a TGI [15] of 1.21 µM. The TGI [16] was 2.03 µM, the TGI [17] was 1.2 µM and the TGI [18] was 0.847 µM. For the same molecule, the TGI [19] was 2.16 µM, the TGI [20] was 1.71 µM and the TGI [21] was 1.15 µM. It also gave a TGI [22] of 0.824 µM, a TGI [23] of 0.517 µM and a TGI [24] of 1.62 µM. For the same molecule, the TGI [25] was 1.73 µM, the TGI [26] was 1.37 µM and the TGI [27] was 4.48 µM. For the same molecule, the TGI [28] was 1.59 µM, the TGI [29] was 1.76 µM and the TGI [30] was 0.491 µM. For the same molecule, the TGI [31] was 1.11 µM, the TGI [32] was 1.1 µM and the TGI [33] was 1.22 µM. For the same molecule, the TGI [34] was 1.11 µM, the TGI [35] was 0.375 µM and the TGI [36] was 0.0976 µM. It also gave a TGI [37] of 1.15 µM, a TGI [38] of 2.51 µM and a TGI [39] of 1.75 µM. For the same molecule, the TGI [40] was 1.37 µM, the TGI [41] was 1.21 µM and the TGI [42] was 1.47 µM. It also gave a TGI [43] of 0.663 µM.
Cn1c(O)c(C(=O)Nc2ccc([N+](=O)[O-])cc2)c(=O)n(C)c1=S gave a TGI [44] of 8.81 µM, a TGI [1] of 2.17 µM and a TGI [2] of 32.5 µM. It also gave a TGI [3] greater than 27.3 µM, a TGI [4] of 10.6 µM and a TGI [5] greater than 100 µM. It also gave a TGI [45] of 19.9 µM, a TGI [46] greater than 35.5 µM and a TGI [47] of 4.81 µM. It also gave a TGI [48] of 11.5 µM, a TGI [6] greater than 23.2 µM and a TGI [7] of 7.23 µM. For the same molecule, the TGI [8] was 5.63 µM, the TGI [49] was 7.02 µM and the TGI [9] was greater than 100 µM. The TGI [50] was 6.85 µM, the TGI [10] was 4.05 µM and the TGI [11] was 4.7 µM. The TGI [51] was 5.85 µM, the TGI [12] was 8.33 µM and the TGI [13] was 10.1 µM. It also gave a TGI [14] greater than 50.9 µM, a TGI [15] of 7.05 µM and a TGI [16] of 20.4 µM. The TGI [52] was greater than 24.9 µM, the TGI [17] was greater than 50.1 µM and the TGI [18] was 22.9 µM. The TGI [19] was greater than 45.3 µM, the TGI [20] was 5.03 µM and the TGI [53] was greater than 100 µM. It also gave a TGI [54] of 6.12 µM, a TGI [55] of 4.95 µM and a TGI [21] greater than 100 µM. For the same molecule, the TGI [56] was 9.85 µM, the TGI [22] was 3.26 µM and the TGI [23] was 24.1 µM. For the same molecule, the TGI [57] was greater than 100 µM, the TGI [58] was 11 µM and the TGI [59] was 8.02 µM. The TGI [24] was 13.5 µM, the TGI [25] was 16.4 µM and the TGI [26] was 14.9 µM. For the same molecule, the TGI [60] was 5.34 µM, the TGI [27] was greater than 100 µM and the TGI [28] was 2.8 µM. The TGI [29] was 10.7 µM, the TGI [30] was 4.86 µM and the TGI [31] was 4.2 µM. It also gave a TGI [32] of 5.53 µM, a TGI [33] of 3.68 µM and a TGI [34] of 5.84 µM. The TGI [35] was greater than 81.1 µM, the TGI [61] was greater than 70.7 µM and the TGI [36] was 10.1 µM. It also gave a TGI [37] of 6.37 µM, a TGI [39] greater than 100 µM and a TGI [62] of 31.3 µM. The TGI [40] was 10.7 µM, the TGI [63] was 7.67 µM and the TGI [64] was 6.36 µM. The TGI [41] was 3.64 µM and the TGI [42] was 12.8 µM.
